Values of other authors, collected in patent US20090312435A1, “SUBSTITUTED PHENETHYLAMINES WITH SEROTONINERGIC AND/OR NOREPINEPHRINERGIC ACTIVITY” (AUSPEX PHARMACEUTICALS, INC, priority 2006, published 2009).
Where “and” joins values, the source holds several entries; their conditions need not be identical. Equal values may be shown once. Read-outs that look alike come from different tables or passages of the source.

For COc1ccc(C(CN(C)C)C2(O)CCCCC2)cc1 (racemic) [venlafaxine], the “half-life (T1/2)” value (in humans) is given as ~5 h and 3 to 7 h.

In the case of CN(C)CC(c1ccc(O)cc1)C1(O)CCCCC1 (centres unmarked) [O-desmethylvenlafaxine], the “half-life (T1/2)” value (human, in vivo) is given as ~11 h.
